Measured values from ChEMBL document CHEMBL1201862, “PubChem BioAssay data set” (2004).
The source made the active and inactive calls.

Key:
cells = details: A549
[1] = HepG2 cell cytotoxicity, dose response, cytotoxicity control, ATP luminescence, cherry-pick, set 6 (AID 1053125); assay type: functional, cell-based
[2] = Luminescence Cell-Based Dose Retest to Confirm Inhibitors of Cancer Stem Cells. [Related pubchem assays (depositor defined):AID2717, AID2721]; assay type: functional; details: Homo sapiens
[3] = Luminescence Cell-Based Dose Response HTS to Identify Inhibitors of 5'UTR Stem-Loop Driven Prion Protein mRNA Translation in H4 Neuroglioblastoma Cells. [Related pubchem assays: 1827 (Project Summary), 1813 (Primary HTS)]; assay type: functional
[4] = inhibitors of firefly luciferase expression or activity, dose response, H4 neuroglioma cells, luminescence (AID 1990); assay type: functional, cell-based
[5] = inhibitors of SNCA 5'UTR-driven reporter translation, confirmation, H4 neuroglioma cells, luminescence (AID 1988); assay type: functional, cell-based
[6] = Artemis endonuclease inhibitor potency, dose response, biochemical, fluorescence intensity (AID 720701); assay type: functional;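 also: Artemis endonuclease enzyme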
[7] = Shn3 3'UTR reporter inhibitors, dose response, cell-based, Clone20 osteoblasts, firefly luciferase, cherry-picked (AID 624132); assay type: functional;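 also: firefly luciferase luminescence from reporter carrying the Shn3 3'UTR in osteoblasts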
Fatty acid synthase [8] = target: T1, Fatty acid synthase (Homo sapiens, UniProt P49327); assay: FAS thioesterase domain inhibitors, dose response, biochemical, kinetic fluorescence intensity (AID 624326); assay type: functional;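 also: rate of fluorescence rise from hydrolysis of a fluorogenic O-methyl fluorescein ester substrate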
[9] = Fluorescence-based cell-based high throughput dose response assay for inhibitors of the interaction of nucleotide-binding oligomerization domain containing 2 (NOD2) and the receptor-interacting serine-threonine kinase 2 (RIPK2).; assay type: functional; details: Homo sapiens
[10] = target: T2, Microphthalmia-associated transcription factor (Homo sapiens, UniProt O75030); assay: TRPM1 promoter luciferase signal decrease, dose response, MITF inhibitor project, cell-based, SK-MEL-5, cherry-picked, set 3 (AID 493073); assay type: functional
T2 sequence (O75030 whole entry): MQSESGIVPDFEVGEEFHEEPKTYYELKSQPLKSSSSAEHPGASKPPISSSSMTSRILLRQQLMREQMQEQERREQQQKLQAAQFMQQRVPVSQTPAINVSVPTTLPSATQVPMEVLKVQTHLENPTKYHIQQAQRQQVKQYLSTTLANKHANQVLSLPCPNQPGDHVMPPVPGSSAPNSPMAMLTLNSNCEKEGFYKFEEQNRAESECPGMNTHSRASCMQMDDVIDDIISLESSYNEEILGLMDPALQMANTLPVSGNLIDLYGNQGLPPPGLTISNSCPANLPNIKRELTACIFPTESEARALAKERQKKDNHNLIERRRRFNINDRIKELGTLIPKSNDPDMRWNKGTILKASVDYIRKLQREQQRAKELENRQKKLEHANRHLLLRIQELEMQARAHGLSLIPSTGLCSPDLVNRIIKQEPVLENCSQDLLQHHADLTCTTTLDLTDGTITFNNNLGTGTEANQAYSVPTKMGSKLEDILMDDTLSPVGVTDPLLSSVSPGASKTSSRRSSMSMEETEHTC

[11] = reduction of endogenous Shn3 mRNA, dose response, qPCR, Clone20 cells, cherry-pick (AID 743415); assay type: functional, cell-based
[12] = target: T3, Replicative DNA helicase DnaB (Mycobacterium tuberculosis, UniProt P9WMR3); assay: DnaB intein splicing inhibitors, dose response, biochemical, cell-free fluorescence (AID 449749); assay type: functional
T3 sequence (P9WMR3 whole entry): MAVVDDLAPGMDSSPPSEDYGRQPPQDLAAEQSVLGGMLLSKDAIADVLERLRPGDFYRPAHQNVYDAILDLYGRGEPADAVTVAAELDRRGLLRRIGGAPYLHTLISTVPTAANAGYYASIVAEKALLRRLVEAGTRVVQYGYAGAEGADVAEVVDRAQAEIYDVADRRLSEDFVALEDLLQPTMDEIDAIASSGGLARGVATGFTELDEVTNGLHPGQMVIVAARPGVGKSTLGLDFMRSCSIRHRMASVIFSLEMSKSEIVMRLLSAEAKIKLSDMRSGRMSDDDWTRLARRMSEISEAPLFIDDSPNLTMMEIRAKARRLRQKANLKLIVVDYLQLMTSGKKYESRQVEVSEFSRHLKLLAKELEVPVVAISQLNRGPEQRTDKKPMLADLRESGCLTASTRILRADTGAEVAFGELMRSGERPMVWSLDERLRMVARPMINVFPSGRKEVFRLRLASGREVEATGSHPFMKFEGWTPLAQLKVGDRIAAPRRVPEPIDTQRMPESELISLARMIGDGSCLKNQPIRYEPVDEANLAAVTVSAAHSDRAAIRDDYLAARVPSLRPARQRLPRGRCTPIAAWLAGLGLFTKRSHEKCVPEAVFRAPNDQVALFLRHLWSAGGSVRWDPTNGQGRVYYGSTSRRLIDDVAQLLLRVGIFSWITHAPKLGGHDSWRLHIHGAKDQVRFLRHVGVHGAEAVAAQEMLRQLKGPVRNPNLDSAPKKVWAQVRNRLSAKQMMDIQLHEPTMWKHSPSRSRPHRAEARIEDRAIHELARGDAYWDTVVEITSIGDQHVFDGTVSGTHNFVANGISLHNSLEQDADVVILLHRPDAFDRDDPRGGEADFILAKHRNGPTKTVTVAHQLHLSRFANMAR

[13] = HepG2 cell cytotoxicity, dose response, cytotoxicity control for Shn3 inhibitor project, CellTiter-Glo, cherry-picked (AID 624134); assay type: functional, cell-based
[14] = reduction of Shn3 3'UTR firefly luciferase signal, dose response, Schnurri-3 inhibitor project, cell-based, Clone20 osteoblasts, cherry-pick, set 2 (AID 720490); assay type: functional;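 also: actives lower the luminescence signal as inhibitors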
[15] = control 3'UTR Renilla luciferase suppression, dose response, counter-screen for Shn3 inhibitor project, cell-based, Clone20-Shn3RL, cherry-picked (AID 624133); assay type: functional
Beta Lactamase = Beta Lactamase (Pseudomonas aeruginosa, UniProt Q932Y6); assay: beta-lactamase reporter inhibitor potency, dose response, artefact control for NOD2-RIPK2 interaction inhibitor project, BLA reporter cells, FRET fluorescence (AID 651552); assay type: functional, cell-based
Protein RecA = target: T4, Protein RecA (Mycobacterium tuberculosis, UniProt P9WHJ3); assay: Fluorescence Cell-Free Homogeneous Dose Retest to Identify Inhibitors of RecA-Intein Splicing Activity. [Related pubchem assays (depositor defined):AID2097, AID2223, AID489010, AID492950]; assay type: functional
T4 sequence (P9WHJ3 whole entry): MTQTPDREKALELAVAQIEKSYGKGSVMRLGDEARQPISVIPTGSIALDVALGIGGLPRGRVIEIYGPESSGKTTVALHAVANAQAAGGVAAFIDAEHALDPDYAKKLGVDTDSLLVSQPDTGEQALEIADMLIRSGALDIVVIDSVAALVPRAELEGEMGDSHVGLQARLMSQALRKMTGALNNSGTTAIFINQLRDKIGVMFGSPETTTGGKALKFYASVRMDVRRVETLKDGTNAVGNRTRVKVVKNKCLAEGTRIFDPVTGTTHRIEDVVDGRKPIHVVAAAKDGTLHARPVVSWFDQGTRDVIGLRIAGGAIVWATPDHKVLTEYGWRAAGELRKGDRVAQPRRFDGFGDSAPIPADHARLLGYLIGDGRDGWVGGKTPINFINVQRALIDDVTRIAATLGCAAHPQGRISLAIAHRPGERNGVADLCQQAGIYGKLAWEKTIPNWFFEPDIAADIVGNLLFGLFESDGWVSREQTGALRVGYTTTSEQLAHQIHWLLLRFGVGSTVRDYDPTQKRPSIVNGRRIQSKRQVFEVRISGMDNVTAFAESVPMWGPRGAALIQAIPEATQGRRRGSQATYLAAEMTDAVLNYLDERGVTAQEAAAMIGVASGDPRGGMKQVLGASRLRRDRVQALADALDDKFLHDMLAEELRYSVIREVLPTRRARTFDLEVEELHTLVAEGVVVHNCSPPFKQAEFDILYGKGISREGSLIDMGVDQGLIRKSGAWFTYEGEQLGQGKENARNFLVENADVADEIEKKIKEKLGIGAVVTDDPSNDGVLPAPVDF

Fatty acid synthase [16] = target: T1, Fatty acid synthase; assay: FAS thioesterase domain inhibitors, dose response, biochemical, endpoint fluorescence intensity, uHTS hits (AID 624327); assay type: functional;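 also: fluorescence from hydrolysis of an O-methyl fluorescein acyl ester substrate by the enzyme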
[17] = inhibitors of non-replicating M. tuberculosis, dose response, luciferase, dry powder (AID 651619); assay type: functional; details: Mycobacterium tuberculosis
[18] = inhibitors of non-replicating M. tuberculosis, dose response, luciferase, dry powder (AID 651620); assay type: functional; details: Mycobacterium tuberculosis
[19] = Late-stage results from the probe development effort to identify antagonists of arginine vasopressin receptor 1a (AVPR1a): fluorescence-based cell-based dose response OXTR inhibition counterscreen assay.; assay type: functional
[20] = Late-stage results from the probe development effort to identify antagonists of arginine vasopressin receptor 1a (AVPR1a): fluorescence-based cell-based dose response AVPR1a inhibition assay.; assay type: functional
Vasopressin V2 receptor = Vasopressin V2 receptor (Homo sapiens, UniProt P30518); assay: Late-stage results from the probe development effort to identify antagonists of arginine vasopressin receptor 1a (AVPR1a): fluorescence-based cell-based dose response AVPR2 inhibition counterscreen assay.; assay type: functional
Vasopressin V1b receptor = Vasopressin V1b receptor (Homo sapiens, UniProt P47901); assay: Late-stage results from the probe development effort to identify antagonists of arginine vasopressin receptor 1a (AVPR1a): fluorescence-based cell-based dose response AVPR1b inhibition counterscreen assay.; assay type: functional
Sequence of Vasopressin V1b receptor (P47901 whole entry): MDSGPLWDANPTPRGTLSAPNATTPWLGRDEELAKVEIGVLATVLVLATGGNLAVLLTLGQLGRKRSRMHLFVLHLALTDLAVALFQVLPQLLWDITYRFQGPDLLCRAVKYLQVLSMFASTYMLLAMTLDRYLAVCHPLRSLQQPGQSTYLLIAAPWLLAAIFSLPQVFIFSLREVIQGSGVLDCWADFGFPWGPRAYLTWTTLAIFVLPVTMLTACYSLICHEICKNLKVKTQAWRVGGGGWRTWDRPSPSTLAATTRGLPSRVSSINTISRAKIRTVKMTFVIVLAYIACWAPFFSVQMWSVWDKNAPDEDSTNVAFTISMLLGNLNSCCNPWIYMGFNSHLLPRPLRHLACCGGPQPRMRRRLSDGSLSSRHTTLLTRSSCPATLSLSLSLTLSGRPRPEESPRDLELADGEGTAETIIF

T1 sequence (P49327 whole entry, the tested form may be a part): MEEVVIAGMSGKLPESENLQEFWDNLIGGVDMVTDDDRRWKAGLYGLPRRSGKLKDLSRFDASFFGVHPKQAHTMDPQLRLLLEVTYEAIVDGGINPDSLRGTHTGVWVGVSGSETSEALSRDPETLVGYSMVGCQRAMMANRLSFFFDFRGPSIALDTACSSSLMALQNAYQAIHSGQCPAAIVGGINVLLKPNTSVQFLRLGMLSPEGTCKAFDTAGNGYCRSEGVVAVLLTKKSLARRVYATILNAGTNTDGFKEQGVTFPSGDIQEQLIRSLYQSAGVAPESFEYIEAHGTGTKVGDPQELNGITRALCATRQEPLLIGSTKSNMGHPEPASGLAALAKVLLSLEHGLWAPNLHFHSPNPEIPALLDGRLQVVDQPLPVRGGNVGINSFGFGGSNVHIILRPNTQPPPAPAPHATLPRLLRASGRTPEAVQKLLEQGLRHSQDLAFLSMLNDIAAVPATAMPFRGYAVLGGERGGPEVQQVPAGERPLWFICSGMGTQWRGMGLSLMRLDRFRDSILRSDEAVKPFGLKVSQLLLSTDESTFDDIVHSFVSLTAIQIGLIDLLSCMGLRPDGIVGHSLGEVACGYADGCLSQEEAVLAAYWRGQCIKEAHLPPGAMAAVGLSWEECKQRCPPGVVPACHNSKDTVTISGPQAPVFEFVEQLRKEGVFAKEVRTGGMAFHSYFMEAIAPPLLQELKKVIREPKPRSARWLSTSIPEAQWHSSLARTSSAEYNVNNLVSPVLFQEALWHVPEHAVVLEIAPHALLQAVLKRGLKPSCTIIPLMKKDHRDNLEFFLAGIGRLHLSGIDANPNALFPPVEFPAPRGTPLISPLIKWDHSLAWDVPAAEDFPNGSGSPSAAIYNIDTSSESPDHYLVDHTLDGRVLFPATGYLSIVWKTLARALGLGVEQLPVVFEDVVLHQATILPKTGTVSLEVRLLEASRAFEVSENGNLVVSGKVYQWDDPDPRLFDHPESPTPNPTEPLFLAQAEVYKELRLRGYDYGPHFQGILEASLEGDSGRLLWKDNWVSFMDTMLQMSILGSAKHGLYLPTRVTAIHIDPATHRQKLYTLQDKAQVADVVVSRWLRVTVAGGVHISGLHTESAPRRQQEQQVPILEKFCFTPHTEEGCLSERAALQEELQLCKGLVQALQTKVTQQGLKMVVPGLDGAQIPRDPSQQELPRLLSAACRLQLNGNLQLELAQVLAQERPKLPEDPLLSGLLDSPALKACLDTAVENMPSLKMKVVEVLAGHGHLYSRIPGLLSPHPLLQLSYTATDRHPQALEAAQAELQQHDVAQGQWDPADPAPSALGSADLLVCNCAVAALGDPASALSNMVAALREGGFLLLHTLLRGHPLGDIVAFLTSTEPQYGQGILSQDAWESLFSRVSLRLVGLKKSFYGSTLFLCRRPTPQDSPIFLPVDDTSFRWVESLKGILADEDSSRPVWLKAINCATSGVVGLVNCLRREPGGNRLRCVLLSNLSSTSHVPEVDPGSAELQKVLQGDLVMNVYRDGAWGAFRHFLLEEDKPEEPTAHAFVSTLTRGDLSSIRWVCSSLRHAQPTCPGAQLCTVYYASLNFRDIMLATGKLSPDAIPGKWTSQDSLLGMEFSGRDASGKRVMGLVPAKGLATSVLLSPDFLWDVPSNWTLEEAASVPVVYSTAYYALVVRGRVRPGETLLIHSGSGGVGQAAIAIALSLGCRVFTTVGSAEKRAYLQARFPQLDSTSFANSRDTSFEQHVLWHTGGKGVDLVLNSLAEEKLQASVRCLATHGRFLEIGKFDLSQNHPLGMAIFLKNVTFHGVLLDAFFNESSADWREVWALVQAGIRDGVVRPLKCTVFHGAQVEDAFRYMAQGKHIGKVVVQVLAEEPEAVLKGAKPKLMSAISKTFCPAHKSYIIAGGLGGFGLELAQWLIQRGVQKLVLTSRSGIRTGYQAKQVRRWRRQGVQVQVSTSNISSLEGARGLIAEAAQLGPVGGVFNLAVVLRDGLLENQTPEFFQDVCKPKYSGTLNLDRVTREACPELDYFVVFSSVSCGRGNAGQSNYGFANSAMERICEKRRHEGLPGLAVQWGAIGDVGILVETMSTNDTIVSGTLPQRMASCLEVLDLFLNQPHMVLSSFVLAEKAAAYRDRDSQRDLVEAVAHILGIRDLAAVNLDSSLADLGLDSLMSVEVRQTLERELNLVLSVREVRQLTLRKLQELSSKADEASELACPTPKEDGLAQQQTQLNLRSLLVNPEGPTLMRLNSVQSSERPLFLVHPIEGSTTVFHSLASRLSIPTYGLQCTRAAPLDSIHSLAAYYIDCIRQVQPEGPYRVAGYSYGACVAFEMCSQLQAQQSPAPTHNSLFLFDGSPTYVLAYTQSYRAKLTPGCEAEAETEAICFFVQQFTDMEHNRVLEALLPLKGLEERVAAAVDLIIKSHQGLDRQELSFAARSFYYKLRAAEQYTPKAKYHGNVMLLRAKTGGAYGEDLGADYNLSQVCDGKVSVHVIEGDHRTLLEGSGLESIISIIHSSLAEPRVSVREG
Sequence of Beta Lactamase (Q932Y6 whole entry): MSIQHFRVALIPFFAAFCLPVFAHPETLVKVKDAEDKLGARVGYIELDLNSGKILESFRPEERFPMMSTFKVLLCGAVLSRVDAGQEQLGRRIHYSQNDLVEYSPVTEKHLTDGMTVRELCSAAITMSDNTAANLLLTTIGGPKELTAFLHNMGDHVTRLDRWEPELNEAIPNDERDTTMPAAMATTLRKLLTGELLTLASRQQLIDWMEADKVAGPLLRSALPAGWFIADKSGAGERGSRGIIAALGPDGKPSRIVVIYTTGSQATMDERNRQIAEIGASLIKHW
Sequence of Vasopressin V2 receptor (P30518 whole entry): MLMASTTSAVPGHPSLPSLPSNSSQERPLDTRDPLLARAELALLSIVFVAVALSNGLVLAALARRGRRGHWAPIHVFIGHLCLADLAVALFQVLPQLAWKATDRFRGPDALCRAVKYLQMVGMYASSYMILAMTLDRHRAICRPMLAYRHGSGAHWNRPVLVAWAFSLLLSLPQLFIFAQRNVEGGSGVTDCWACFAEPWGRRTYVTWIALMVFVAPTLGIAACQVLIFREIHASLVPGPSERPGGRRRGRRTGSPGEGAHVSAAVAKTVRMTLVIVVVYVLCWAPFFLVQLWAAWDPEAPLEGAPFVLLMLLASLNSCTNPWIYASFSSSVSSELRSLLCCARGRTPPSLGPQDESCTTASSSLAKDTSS

Q: Which AC50 (cells) does the source give for `CCCCCCc1cc2cc(S(=O)(=O)c3ccc(C)cc3)c(=O)oc2cc1O` here?
A: 37.9 µM (active)

Q: And the AC50 [1]?
A: > 52 µM (inactive)

Q: And the AC50 [2]?
A: 2.46 µM (active)

Q: Which EC50 [3] does the source give for `CSc1nnc2c3cc(C)ccc3n(Cc3ccccc3)c2n1` here?
A: > 120 µM (not active)

Q: And the EC50 [4]?
A: > 120 µM (not active)

Q: What about the EC50 [5] of the same compound?
A: > 120 µM (not active)

Q: What about the IC50 [6] of the same compound?
A: 19.8 µM (active)

Q: For `CC(C)[C@H](NC(=O)OC(C)(C)C)c1nnc(S(=O)(=O)Cc2c(F)cccc2Cl)o1`, which AC50 [7] is on record?
A: 1.08 µM (active)

Q: And the IC50 (Fatty acid synthase [8])?
A: 1.61 µM (active)

Q: What about the IC50 [9] of the same compound?
A: 1.97 µM (active)

Q: And the AC50 [10]?
A: 11.6 µM (active)

Q: And the AC50 [11]?
A: 12 µM (active)

Q: What about the AC50 [12] of the same compound?
A: 4.9 µM (active)

Q: What about the AC50 [13] of the same compound?
A: 61.7 µM (active)

Q: And the AC50 [14]?
A: 3.07 µM (active)

Q: And the AC50 [15]?
A: 13.5 µM (active)

Q: What about the IC50 (Beta Lactamase) of the same compound?
A: 10.5 µM (inactive)

Q: And the EC50 (Protein RecA)?
A: 9.61 µM (active)

Q: What about the IC50 (Fatty acid synthase [16]) of the same compound?
A: 3.02 µM (active)

Q: Which results are given for `Fc1ccc(-c2nnc(SCc3cn(-c4ccccc4)nn3)o2)cc1`?
A: IC90 [17]: 1 µM (active); IC90 [18]: 1 µM (active)

Q: For `Cc1ccnc(N2CCN(C(=O)N(CC3CC3)c3ccc(Cl)cc3)CC2)c1`, which IC50 [19] is on record?
A: > 50 µM (inactive)

Q: And the IC50 [20]?
A: 0.0158 µM (active)

Q: What about the IC50 (Vasopressin V2 receptor) of the same compound?
A: > 50 µM (inactive)

Q: And the IC50 (Vasopressin V1b receptor)?
A: > 50 µM (inactive)
